# Key:
# Format in all cases: in vivo
# [1] = test system: barnyardgrass (Echinochloa crus-galli, ECHCG); test: Greenhouse herbicide screen, post-emerge application, phytotoxicity rating; conditions: POST emergent, 14 days after application, scale 0-100
# Outline: (§1)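 Seeds went into sandy loam soil mix, one day before spraying for pre-emergence or 8–21 days before for post-emergence. Test substances in acetone were then sprayed at rates of 15–1000 g ai/ha. Damage was scored 0–100 fourteen days later.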
# [2] = test system: cocklebur (Xanthium strumarium, XANST); test: as above; conditions: POST emergent, 14 days after application, scale 0-100
# Outline: as §1
# [3] = test system: common ragweed (Ambrosia artemisiifolia L., AMBEL); test: as above; conditions: POST emergent, 14 days after application, scale 0-100
# Outline: as §1
# [4] = test system: green foxtail (Setaria viridis, SETVI); test: as above; conditions: POST emergent, 14 days after application, scale 0-100
# Outline: as §1
# [5] = test system: ivyleaf morningglory (Ipomoea hederacea, IPOHE); test: as above; conditions: POST emergent, 14 days after application, scale 0-100
# Outline: as §1
# [6] = test system: johnsongrass (Sorghum halepense, SORHA); test: as above; conditions: POST emergent, 14 days after application, scale 0-100
# Outline: as §1
# [7] = test system: lambsquarters (Chenopodium album, CHEAL); test: as above; conditions: POST emergent, 14 days after application, scale 0-100
# Outline: as §1
# [8] = test system: large crabgrass (Digitaria sanguinalis, DIGSA); test: as above; conditions: POST emergent, 14 days after application, scale 0-100
# Outline: as §1
# [9] = test system: redroot pigweed (Amaranthus retrofiexus, AMARE); test: as above; conditions: POST emergent, 14 days after application
# Outline: as §1
# [10] = test system: sicklepod (Cassia obtusifolia, CASOB); test: as above; conditions: POST emergent, 14 days after application, scale 0-100
# Outline: as §1
# [11] = test system: velvetleaf (Abutilon theophrasti, ABUTH); test: as above; conditions: POST emergent, 14 days after application, scale 0-100
# Outline: as §1
# [12] = test system: field corn (Zea mays L., var. Dekalb 535, CORN); test: Greenhouse herbicide screen, post-emerge application, crop damage rating; conditions: POST emergent, 14 days after application, scale 0-100
# Source text: (§2) A standard greenhouse herbicide activity screening system was used to evaluate the herbicidal efficacy and crop safety of these test compounds. Seven broadleaf weed species including redroot pigweed (Amaranthus retrofiexus, AMARE), velvetleaf (Abutilon theophrasti, ABUTH), sicklepod (Cassia obtusifolia, CASOB), ivyleaf morningglory (Ipomoea hederacea, IPOHE), lambsquarters (Chenopodium album, CHEAL), common ragweed (Ambrosia artemisiifolia L., AMBEL), and cocklebur (Xanthium strumarium, XANST) were used as test species. Four grass weed species including green foxtail (Setaria viridis, SETVI), barnyardgrass (Echinochloa crus-galli, ECHCG), johnsongrass (Sorghum halepense, SORHA), and large crabgrass (Digitaria sanguinalis, DIGSA) were also used. In addition, four crop species, field corn (Zea mays L., var. Dekalb 535, CORN), soybean (Glycine max L., var. Pella 86, SOY), upland rice (Oryza sp., var.Cocodrie, RICE) and wheat (Triticum aestivum L.) were included.
# (§3) All plants were grown in 10 cm square plastic pots which were filled with a sandy loam soil mix. For pre-emerge tests, seeds were planted one day prior to application of the test compounds. For post-emerge tests, seeds were planted 8-21 days prior to the test to allow emergence and good foliage development prior to application of the test substances. At the time of the post-emerge application, plants of all species were usually at the 2-3 leaf stage of development.
# (§4) All test compounds were dissolved in acetone and applied to the test units in a volume of 187 l/ha. Test materials were applied at rates ranging from 15 g ai/ha to 1000 g ai/ha using a track sprayer equipped with a TJ8001E even flow flat fan spray nozzle. Plants were arranged on a shelf so that the top of the canopy (post-emerge) or top of the soil surface (pre-emerge) was 40-45 cm below the nozzle. Pressurized air was used to force the test solution through the nozzle as it was mechanically advanced (via electrically driven chain drive) over the top of all test plants/pots. This application simulates a typical commercial field herbicide application.
# (§5) Pre-emergence tests were top watered immediately after treatment to incorporate the test materials, then routinely top-watered for normal growth. Post-emerge test units were always bottom-watered.
# (§6) At 14 days after application of the test materials, phytotoxicity ratings were recorded. A rating scale of 0-100 was used as previously described in Research Methods in Weed Science, 2nd edition, B. Truelove, Ed., Southern Weed Science Society, Auburn University, Auburn, Ala., 1977. Briefly, “0” corresponds to no damage and “100” corresponds to complete death of all plants in the test unit. This scale was used both to determine efficacy against weed species and damage to crop species. Herbicide activity data for various compounds of this invention, which are shown by compound No. in Tables 1-12, are shown in Tables 13 and 14.
# [13] = test system: upland rice (Oryza sp., var.Cocodrie, RICE); test: as above; conditions: POST emergent, 14 days after application, scale 0-100
# Source text: as §2, §3, §4, §5, §6
# [14] = test system: barnyardgrass (Echinochloa crus-galli, ECHCG); test: Greenhouse herbicide screen, pre-emerge application, phytotoxicity rating; conditions: PRE emergent, 14 days after application, rating scale 0-100
# Outline: as §1
# [15] = test system: cocklebur (Xanthium strumarium, XANST); test: as above; conditions: PRE emergent, 14 days after application, rating scale 0-100
# Outline: as §1
# [16] = test system: common ragweed (Ambrosia artemisiifolia L., AMBEL); test: as above; conditions: PRE emergent, 14 days after application, rating scale 0-100
# Outline: as §1
# [17] = test system: green foxtail (Setaria viridis, SETVI); test: as above; conditions: PRE emergent, 14 days after application, rating scale 0-100
# Outline: as §1
# [18] = test system: ivyleaf morningglory (Ipomoea hederacea, IPOHE); test: as above; conditions: PRE emergent, 14 days after application, rating scale 0-100
# Outline: as §1
# [19] = test system: johnsongrass (Sorghum halepense, SORHA); test: as above; conditions: PRE emergent, 14 days after application, rating scale 0-100
# Outline: as §1
# [20] = test system: lambsquarters (Chenopodium album, CHEAL); test: as above; conditions: PRE emergent, 14 days after application, rating scale 0-100
# Outline: as §1
# [21] = test system: large crabgrass (Digitaria sanguinalis, DIGSA); test: as above; conditions: PRE emergent, 14 days after application, rating scale 0-100
# Outline: as §1
# [22] = test system: redroot pigweed (Amaranthus retrofiexus, AMARE); test: as above; conditions: PRE emergent, 14 days after application, rating scale 0-100
# Outline: as §1
# [23] = test system: sicklepod (Cassia obtusifolia, CASOB); test: as above; conditions: PRE emergent, 14 days after application, rating scale 0-100
# Outline: as §1
# [24] = test system: velvetleaf (Abutilon theophrasti, ABUTH); test: as above; conditions: PRE emergent, 14 days after application, rating scale 0-100
# Outline: as §1
# [25] = test system: field corn (Zea mays L., var. Dekalb 535, CORN); test: Greenhouse herbicide screen, pre-emerge application, crop damage rating; conditions: PRE emergent, 14 days after application, rating scale 0-100
# Source text: as §2, §3, §4, §5, §6
# [26] = test system: upland rice (Oryza sp., var.Cocodrie, RICE); test: as above; conditions: PRE emergent, 14 days after application, rating scale 0-100
# Source text: as §2, §3, §4, §5, §6
smiles,measurement,setting,value
CC1CCCC(C)N1N=C(OC(=O)C(Cl)Cl)c1cc(-n2c(=O)cc(C(F)(F)F)n(C)c2=O)c(F)cc1Cl (stereo not shown) [Compound 4-8],phytotoxicity rating ECHCO,[1]; 63 g ai/ha,70
same,phytotoxicity rating ECHCO,[1]; 250 g ai/ha,90
same,phytotoxicity rating XANST,[2]; 63 g ai/ha,100
same,phytotoxicity rating XANST,[2]; 250 g ai/ha,100
same,phytotoxicity rating AMBEL,[3]; 63 g ai/ha,80
same,phytotoxicity rating AMBEL,[3]; 250 g ai/ha,100
same,phytotoxicity rating SETVI,[4]; 63 g ai/ha,15
same,phytotoxicity rating SETVI,[4]; 250 g ai/ha,60
same,phytotoxicity rating IPOHE,[5]; 63 g ai/ha,100
same,phytotoxicity rating IPOHE,[5]; 250 g ai/ha,100
same,phytotoxicity rating SORHA,[6]; 63 g ai/ha,10
same,phytotoxicity rating SORHA,[6]; 250 g ai/ha,65
same,phytotoxicity rating CHEAL,[7]; 63 g ai/ha,100
same,phytotoxicity rating CHEAL,[7]; 250 g ai/ha,100
same,phytotoxicity rating DIGSA,[8]; 63 g ai/ha,0
same,phytotoxicity rating DIGSA,[8]; 250 g ai/ha,75
same,phytotoxicity rating AMARE,"[9]; 63 g ai/ha, scale 0-100 (0 no damage, 100 complete death)",100
same,phytotoxicity rating AMARE,"[9]; 250 g ai/ha, scale 0-100",100
same,phytotoxicity rating CASOB,[10]; 63 g ai/ha,70
same,phytotoxicity rating CASOB,[10]; 250 g ai/ha,75
same,phytotoxicity rating ABUTH,[11]; 63 g ai/ha,100
same,phytotoxicity rating ABUTH,[11]; 250 g ai/ha,100
same,crop damage rating CORN,[12]; 63 g ai/ha,90
same,crop damage rating CORN,[12]; 250 g ai/ha,100
same,crop damage rating RICE,[13]; 63 g ai/ha,0
same,crop damage rating RICE,[13]; 250 g ai/ha,15
same,phytotoxicity rating ECHCG,[14]; 63 g ai/ha,0
same,phytotoxicity rating ECHCG,[14]; 250 g ai/ha,15
same,phytotoxicity rating XANST,[15]; 63 g ai/ha,30
same,phytotoxicity rating XANST,[15]; 250 g ai/ha,60
same,phytotoxicity rating AMBEL,[16]; 63 g ai/ha,60
same,phytotoxicity rating AMBEL,[16]; 250 g ai/ha,99
same,phytotoxicity rating SETVI,[17]; 63 g ai/ha,65
same,phytotoxicity rating SETVI,[17]; 250 g ai/ha,100
same,phytotoxicity rating IPOHE,[18]; 63 g ai/ha,95
same,phytotoxicity rating IPOHE,[18]; 250 g ai/ha,100
same,phytotoxicity rating SORHA,[19]; 63 g ai/ha,0
same,phytotoxicity rating SORHA,[19]; 250 g ai/ha,80
same,phytotoxicity rating CHEAL,[20]; 63 g ai/ha,100
same,phytotoxicity rating CHEAL,[20]; 250 g ai/ha,100
same,phytotoxicity rating DIGSA,[21]; 63 g ai/ha,50
same,phytotoxicity rating DIGSA,[21]; 250 g ai/ha,99
same,phytotoxicity rating AMARE,[22]; 63 g ai/ha,100
same,phytotoxicity rating AMARE,[22]; 250 g ai/ha,100
same,phytotoxicity rating CASOB,[23]; 63 g ai/ha,60
same,phytotoxicity rating CASOB,[23]; 250 g ai/ha,90
same,phytotoxicity rating ABUTH,[24]; 63 g ai/ha,100
same,phytotoxicity rating ABUTH,[24]; 250 g ai/ha,100
same,crop damage rating CORN,[25]; 63 g ai/ha,0
same,crop damage rating CORN,[25]; 250 g ai/ha,50
same,crop damage rating RICE,[26]; 63 g ai/ha,0
same,crop damage rating RICE,[26]; 250 g ai/ha,0
